Entries after “also recorded” stand apart in the source; their conditions may differ. Where two headings read alike, the source gives them in different places.
Experiments:
[1] = tested on: bladder cancer cell lines; test: Cell based assay, cell viability (CellTiter-Glo), bladder cancer cell lines; conditions: 72 hours treatment, 0 to 2 μM, CellTiter-Glo
Summary of the method: (§1)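 Cell lines seeded, cultured 24 hours, then exposed to compound at final 0 to 2 μM. After a further 72 hours, viability measured by ATP-detection luminescence (CellTiter-Glo).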

liver cancer cell lines = test: Cell based assay, cell viability (CellTiter-Glo), liver cancer cell lines; conditions: Homo sapiens, SK-HEP1; SK-HEP-1 cell line
Summary of the method: as §1

[2] = IV and IP single toxicity test in mice; format: in vivo; conditions: for Percentage (dead subjects), single toxicity evaluation: Mouse
[3] = tested on: UM-UC-3: human urinary bladder transitional cell carcinoma; test: Cell based assay, cytotoxicity in UM-UC-3 cells; conditions: UMUC3, 72 hours
Method: Commercially available bladder cancer, prostate cancer, lung cancer, breast cancer, blood cancer, pancreatic cancer, colorectal cancer, brain cancer, neuroblastoma, melanoma, liver cancer, cervical carcinoma, ovarian cancer, renal cancer, and papilloma cell lines were each treated with trypsin-EDTA and cultured, followed by being seeded in each well of a 96 well plate. After 24 hours of treatment at constant temperature, the respective cells were treated with the candidate compound so that a final concentration became 0 to 2 μM. The treated cells were additionally cultured for 72 hours, and cell viability was measured by using an ATP detection method (CellTiter-Glo® Luminescent Cell Viability Assay, Promega).

[4] = 253J cells, read-out: IC50, bladder cancer cell line 253J
[5] = 5637 cells, read-out: IC50, bladder cancer cell line 5637
[6] = Homo sapiens, T-24, T24 cells, read-out: IC50, bladder cancer cell line T24
[7] = Homo sapiens, J82 cells, read-out: IC50, bladder cancer cell line J82
[8] = IV and IP single toxicity tests at 40 mpk, 40 mg/kg

Compound	IC50 [1, 4] [µM]	IC50 [1, 5] [µM]	IC50 [1, 6] [µM]	IC50 [1, 7] [µM]	IC50 (liver cancer cell lines) [µM]	Dead subjects [2, 8]	General symptoms (feed intake, drinking water intake) [2, 8]	Weight changes [2, 8]	Percentage (dead subjects), single toxicity evaluation ([2]; Female, IP 40 mg/kg)	Percentage (dead subjects), single toxicity evaluation ([2]; Female, IV 40 mg/kg)	Percentage (dead subjects), single toxicity evaluation ([2]; Male, IP 40 mg/kg)	Percentage (dead subjects), single toxicity evaluation ([2]; Male, IV 40 mg/kg)	IC50 [3] [µM]
CC(=O)c1c([S+]([O-])Cc2ccccc2)nc2c(Br)ccc(Cl)c2c1O (stereo not drawn) [Compound 4]	1	1.91	1.31	> 2	1.13	No dead subjects were observed	Feeding and drinking water intakes were good, and no other abnormal symptoms were observed	no significant weight changes; also recorded: a weight gain was observed, but weight gain was slightly reduced in some subjects	0 (0/2)	0 (0/2)	0 (0/2)	0 (0/2)	–
CC(=O)c1c([S+]([O-])Cc2ccc(-n3cccn3)nc2)[nH]c2c(Br)ccc(Cl)c2c1=O (stereo not drawn) [Compound 99, 2-(((6-(1H-pyrazol-1-yl)pyridin-3-yl)methyl)sulfinyl)-3-acetyl-8-bromo-5-chloroquinolin-4(1H)-one]	0.8	1.62	0.85	1.5	1.06	–	–	–	–	–	–	–	0.77

Reference: patent US11464770B2, “Anticancer pharmaceutical composition” (NATIONAL CANCER CENTER, priority 2016, dated 2022)
